Legend:
HSC-3 cells [1] = assay: Internalization studies in HSC-3 monolayers (4 °C vs 37 °C, endocytosis inhibitors), flow cytometry; format: cell-based, human; conditions: for reduction of cellular uptake of IRDye-A20 by endocytosis inhibitor: HSC-3 cells pre-incubated 30 min with Genistein 400 µM, Chlorpromazin or EIPA 100 µM, then IRDye-A20 500 nM for 3 h, n = 3–4
H10 HSC-3 spheroids = assay: Accumulation in homotypic H10 (HSC-3) spheroids, flow cytometry; format: cell-based, human
MRC-5 cells = conditions: 24 h, 0.1–4 µM, serum-free medium, highest concentration 4 µM, p > 0.05
Description: (§1) Cells were seeded into 96-well plates (100 µL, 4.10^4 cells/mL) for 5 days, then culture medium was replaced with 0.1–4 µM of IRDye-conjugates diluted in serum-free medium for 24 h at 37 °C. Afterwards, cells were washed, fixed with 70% ethanol for 10 min and further incubated with 0.2% crystal violet in 20% ethanol for 15 min. After several washes, crystal violet was solubilized using 0.1% acetic acid and 50% ethanol and optical density was recorded at 540 nm with Multiskan microplate readers (Ascent, Labsystems). Cell viability was calculated by normalizing to that of the control condition.

HSC-3 cells [2] = conditions: 24 h, 0.1–4 µM, serum-free medium, highest concentration 4 µM, p > 0.05
Description: as §1

Molecule: CCN(c1nc(N)c(C(=O)N=C(N)N)nc1Cl)C(C)C [EIPA, (5-(N-Ethyl-N-isopropyl)-Amiloride)]
- reduction of cellular uptake of IRDye-A20 by endocytosis inhibitor (HSC-3 cells [1]): not affected

Molecule: CN(C)CCCN1c2ccccc2Sc2ccc(Cl)cc21 [chlorpromazine, Chlorpromazin]
- reduction of cellular uptake of IRDye-A20 by endocytosis inhibitor (HSC-3 cells [1]): not affected

Molecule: O=c1c(-c2ccc(O)cc2)coc2cc(O)cc(O)c12 [genistein, Genistein]
- reduction of cellular uptake of IRDye-A20 by endocytosis inhibitor (HSC-3 cells [1]): 30%

Molecule: CGGGSGGGSLRDQTGLKNPVQLARVAV [IRDye-Scr, IRDye 680 conjugated to a scramble version of the A20 peptide, control for non-specific delivery]
- MFI, fold less compared to IRDye-A20 (H10 HSC-3 spheroids; 100 nM, 24 h): 20 fold
- percentage of labeled cells (H10 HSC-3 spheroids; 3 h, maximum over 1-250 nM, n = 4–5): 3%
- percentage of labeled cells (H10 HSC-3 spheroids; 6 h, maximum over 1-250 nM, n = 4–5): 7%
- percentage of labeled cells (H10 HSC-3 spheroids; 24 h, 50 nM): ≤ 3%
- percentage of labeled cells (H10 HSC-3 spheroids; 24 h, 100 nM): 11%
- percentage of labeled cells (H10 HSC-3 spheroids; 24 h, 250 nM): 45%
- loss of viability (crystal violet) (MRC-5 cells): Loss of viability was not detected
- loss of viability (crystal violet) (HSC-3 cells [2]): Loss of viability was not detected
- inhibition of internalization at 4 °C versus 37 °C (HSC-3 cells [1]; HSC-3 monolayers, 3 h, 1-500 nM, n = 4): significant inhibition of internalization at 4 °C was observed only at the highest concentrations

Source: article PMC11218202, “Targeting of 3D oral cancer spheroids by αVβ6 integrin using near-infrared peptide-conjugated IRDye 680” (Cancer Cell International, 2024)
